Test results reported in patent publication US20250352535A1, “MDM2 DEGRADERS AND USES THEREOF” (Kymera Therapeutics, Inc., priority 2022, published 2025).

Assays:
Measured pKa = format: physicochemical; settings: free base
Procedure: (§1) Compound A for injection was manufactured as a concentrated frozen solution containing 10 mg/mL of free base intended to be diluted with an intravenous (IV) infusion vehicle (normal saline, 0.9% sodium chloride, injection). […] To achieve drug concentration of 10 mg/mL, formulation development focused on identifying acceptable pharmaceutical solvents, surfactants, and pH modifiers to achieve the required solubility of Compound A.

[1] = Aqueous solubility of drug substance; format: physicochemical; settings: aqueous media over pH 3 to 8, aqueous buffer, pH range between 3 to 8
Procedure: as §1

[2] = test system: apoptotic gene BBC3 in RS4;11 tumors; experiment: qPCR analysis of RS4;11 tumors; format: in vivo, NOD/SCID mice
Procedure: (§2) RS4;11 and MV4;11 tumors were established subcutaneously in the hind flank of NOD/SCID mice. Mice were randomized and treated with Compound A as either a single pulse dose or weekly for 3 weeks at doses matched for total AUC. MDM2 SMI DS-3032 (Milademetan) was dosed at its clinically equivalent dose and regimen of 3 days on/11 days off. Pharmacodynamic effects were assessed at mRNA level by RT-qPCR and protein level by quantitative targeted mass spectrometry and immunohistochemistry.

CTG-2240 AML PDX model = experiment: AML PDX model CTG-2240; format: in vivo, mice; settings: 1 mg/kg, Q3W, IV
Procedure: (§3) AML patient cells from leukapheresis were intravenously (IV) injected and established in immunocompromised host strain mice. Surrogate animals were used to determine the level of engraftment targeting a threshold of ˜20% huCD45+ cells in BM. Mice were randomized on study and treatment was initiated. Vehicle and Compound A, 1 mg/kg were administered IV, every three weeks for six weeks (total of two doses of Compound A). At study end, whole blood, bone marrow and spleen were assessed by flow cytometry.

RS4;11 ALL model = experiment: RS4;11 ALL xenograft efficacy; format: in vivo, NOD/SCID mice; settings: for median survival: n=6 animals/group
Procedure: as §2

CTG-2700 AML PDX model = experiment: AML PDX model CTG-2700; format: in vivo, mice; settings: 1 mg/kg, Q3W, IV
Procedure: as §3

[3] = test system: panel of solid and hematological tumor cell lines; experiment: Cell growth inhibition across tumor cell line panel; format: cell-based; settings: versus MDM2 small molecule inhibitors (SMIs)
Procedure: (§4) All cell lines were cultured according to recommended procedures unless otherwise noted. For growth inhibition assays, cells were treated with compounds for indicated time points. Viability was assessed using Promega® CellTiter-Glo® assay, and apoptosis was assessed using Promega® Caspase-Glo® 3/7 assay. Cell cycle arrest and/or apoptosis in response to single agent or combination treatment was assessed using flow cytometry analysis on cells treated for 24h.

[4] = test system: TMD8 p53^MUT ABC-subtype DLBCL xenograft model; experiment: TMD8 DLBCL xenograft; format: in vivo
[5] = test system: multiple heme indications (AML, T cell lymphomas, mantle cell lymphoma, DLBCL); experiment: In vitro activity across heme indications; format: cell-based; settings: mantle cell lymphoma and DLBCL most sensitive
Procedure: as §4

[6] = test system: OCI-LY10 p53^WT ABC-subtype DLBCL xenograft model; experiment: OCI-LY10 DLBCL xenograft; format: in vivo
[7] = Solubility/stability screening in IV excipients; format: physicochemical
Excerpt: Initial solubility screening of Compound A focused on using different enabling excipients suitable for IV administration. The screening included surfactants, cosolvents, and pH modifiers (i.e., glacial acetic acid, and hydrochloric acid). […] As a result, the selected formulation to support the GLP toxicology study was comprised of 30% propylene glycol, 3% Solutol HS15, and 0.01 M in acetate buffer at pH 5±0.2.
The clinical formulation development was centered on using organic concentrates without water to avoid hydrolysis of Compound A. Additional solubility and stability evaluations of Compound A were conducted with different types of co-solvents and surfactants with and without butylated hydroxytoluene as antioxidant.

MOLM-13 xenograft model = experiment: MOLM-13 xenograft combination study; format: in vivo
[8] = test system: p53 pathway (p53, p21, PHLDA3); experiment: Targeted proteomic analysis of RS4;11 tumors: p53 pathway biomarkers; format: in vivo, NOD/SCID mice
Procedure: as §2

[9] = test system: hCD45+ cells in bone marrow and AML blasts; experiment: Flow cytometry of AML PDX models; format: in vivo, mice; settings: 1 mg/kg, Q3W
Procedure: as §3

[10] = test system: p53 pathway and cleaved caspase-3 (CC-3) in MV4;11 tumors; experiment: IHC analysis of MV4;11 tumors; format: in vivo, NOD/SCID mice; settings: n=3/group
Procedure: as §2

[11] = test system: acute lymphoblastic leukemia (ALL) cell line RS4;11; experiment: MDM2/p53 pathway and apoptosis in RS4;11 cells; format: cell-based
MV4;11 AML model = experiment: MV4;11 AML xenograft efficacy; format: in vivo, NOD/SCID mice
Procedure: as §2

Measured Log D = format: physicochemical; settings: free base
[12] = test system: p53 pathway and cleaved caspase-3 (CC-3) in RS4;11 tumors; experiment: IHC analysis of RS4;11 tumors; format: in vivo, NOD/SCID mice; settings: n=3/group
Procedure: as §2

MOLM-13 cell line = experiment: Combination apoptosis and cell killing in MOLM-13; format: cell-based; settings: combination with venetoclax and midostaurin
Procedure: as §4

MDM2 = molecular target: T1, MDM2 (Homo sapiens, UniProt Q00987); experiment: Targeted proteomic analysis of RS4;11 tumors: MDM2; format: in vivo, NOD/SCID mice; settings: one hour post dosing
T1 construct: RS4;11 and MV4;11 tumors were established subcutaneously in the hind flank of NOD/SCID mice; endogenous in cells; host or cells: RS4;11 xenograft tumors in NOD/SCID mice
Procedure: as §2

[13] = test system: CTG-2227 AML patient-derived xenograft (PDX) model; experiment: AML PDX model CTG-2227; format: in vivo, mice; settings: 1 mg/kg, Q3W, IV
Procedure: as §3

T1 sequence (Q00987 whole entry): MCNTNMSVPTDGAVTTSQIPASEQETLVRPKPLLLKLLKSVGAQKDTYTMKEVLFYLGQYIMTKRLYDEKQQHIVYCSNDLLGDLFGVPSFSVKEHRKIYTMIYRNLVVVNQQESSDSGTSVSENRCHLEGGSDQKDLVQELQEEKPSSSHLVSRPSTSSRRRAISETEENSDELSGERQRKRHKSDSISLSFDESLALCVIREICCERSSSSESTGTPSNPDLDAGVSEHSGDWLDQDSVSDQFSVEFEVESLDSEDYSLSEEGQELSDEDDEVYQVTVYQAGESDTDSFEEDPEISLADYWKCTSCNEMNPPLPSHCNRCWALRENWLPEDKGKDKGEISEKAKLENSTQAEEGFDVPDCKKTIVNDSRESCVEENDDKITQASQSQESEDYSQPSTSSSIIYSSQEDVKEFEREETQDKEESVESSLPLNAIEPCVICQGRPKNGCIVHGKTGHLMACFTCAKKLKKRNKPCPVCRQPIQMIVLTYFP

## Cn1c(=O)n(C2CCC(=O)NC2=O)c2ccc(C3CCN(C(=O)[C@H]4CC[C@H](NC(=O)[C@@H]5NC6(CCCCC6)[C@@]6(C(=O)Nc7cc(Cl)ccc76)[C@H]5c5cccc(Cl)c5F)CC4)CC3)cc21 (stereo partly drawn) [Compound A, (3′R,4′S,5′R)-6″-chloro-4′-(3-chloro-2-fluorophenyl)-N-((1R,4R)-4-(4-(1-(2,6-dioxopiperidin-3-yl)-3-methyl-2-oxo-2,3-dihydro-1H-benzo[d]imidazol-5-yl)piperidine-1-carbonyl)cyclohexyl)-2″-oxodispiro[cyclohexane-1,2′-pyrrolidine-3′,3″-indoline]-5′-carboxamide]
Measured pKa
  pKa: 5
[1]
  solubility: < 10 µg/mL
[2]; RS4;11 tumors
  plasma concentration required for induction of the apoptotic gene BBC3: above 0.02 uM
[2]; exposure-matched weekly dosing, n=3/group
  increase in apoptotic markers (qPCR): only a moderate increase
[2]; single doses that lead to tumor regression, n=3/group
  induction of the apoptotic gene BBC3 (qPCR): robust induction
CTG-2240 AML PDX model
  tumor response: partial responses
RS4;11 ALL model; exposure-matched weekly dosing
  tumor response: tumor stasis
RS4;11 ALL model; maintained for 12 to 22 hours
  plasma concentration required for tumor regression: above 0.01 uM
RS4;11 ALL model; single dose at 3 mg/kg
  median survival: 50 days
RS4;11 ALL model; single doses
  tumor response: tumor regression
CTG-2700 AML PDX model
  tumor response: partial responses
[3]
  cell growth inhibition compared to SMIs: > 200 fold
[4]
  highly active in xenograft model: not
[5]
  in vitro activity: active across multiple heme indications
[6]
  activity in xenograft model: highly active
[7]; combination of polyethylene glycol 400, ethanol, polysorbate 80 and butylated hydroxytoluene, 10 mg/mL
  solubility and stability: sufficient solubility and stability
[7]; formulations containing propylene glycol, polyethylene glycol 400, Solutol HS15 and polysorbate 80 at low pH
  solubility: significantly enhanced
MOLM-13 xenograft model; single dose of Compound A in combination with daily dosing of venetoclax
  anti-tumor activity: sustained tumor regression
[8]
  proteomics biomarkers p53, p21 (cell cycle arrest marker) and PHLDA3 (apoptotic marker): upregulation
[9]
  hCD45+ cells in bone marrow and AML blasts: significantly reduces
[10]; exposure-matched weekly dosing
  robust activation of the p53 pathway and induction of CC-3 (IHC): not
[10]; single dose
  activation of the p53 pathway and induction of CC-3 (IHC): robust activation of the p53 pathway and induction of cleaved caspase-3 (CC-3)
[11]; compared with reversible SMIs
  effect on p53-dependent upregulation of MDM2 protein levels: can overcome the p53-dependent upregulation of MDM2 protein levels
[11]; pulsed dose, mediated through p53 target genes
  apoptosis in washout experiments: can lead to apoptosis
[11]; short 2 hour exposures, versus SMIs
  p53 stabilization: more potently stabilize p53 than SMIs
MV4;11 AML model; single dose at 3 mg/kg
  complete responses: 5 of 6
MV4;11 AML model; single dose at 3 mg/kg, 80 days post dosing
  tumor-free on study: 4 of 6
Measured Log D
  logD: > 3.7
[12]; single dose versus exposure-matched weekly dosing
  activation of the p53 pathway and induction of CC-3 (IHC): more robust activation of the p53 pathway and induction of cleaved caspase-3 (CC-3)
MOLM-13 cell line
  induction of apoptosis and cell killing: enhances induction of apoptosis and cell killing
MDM2
  degradation of MDM2 in tumors: robust degradation
[13]
  tumor response: tumor regression

## CC1(C)CCC2(CC1)N[C@@H](C(=O)N[C@@H]1CC[C@@H](C(N)=O)OC1)[C@H](c1ccnc(Cl)c1F)[C@]21C(=O)Nc2cc(Cl)ccc21 [DS-3032, Milademetan, reference compound]
RS4;11 ALL model; clinically equivalent dosing regimen (3 days on/11 days off)
  median survival: 12 days
[10]; similar to the lower weekly dosing regimen of Compound A
  induction of CC-3 (IHC): modest
MV4;11 AML model; clinically equivalent dose and regimen, n=6 animals/group
  complete responses: No complete responses
[12]; treatment with the SMI
  induction of CC-3 (IHC): not observed

## Nc1ccn([C@@H]2O[C@H](CO)[C@@H](O)[C@@H]2O)c(=O)n1 [cytarabine]
MOLM-13 xenograft model; combination of cytarabine and venetoclax
  anti-tumor activity: no significant anti-tumor activity
MOLM-13 xenograft model; cytarabine alone
  anti-tumor activity: no significant anti-tumor activity
